Test results reported in ChEMBL document CHEMBL1268993, “Tri- and tetrasubstituted imidazoles as p38α mitogen-activated protein kinase inhibitors” (Bioorg Med Chem Lett, 2010).
pIC50: −log10 of the molar value.

Molecular target: Mitogen-activated protein kinase 14 (Homo sapiens, UniProt Q16539)
Test: Inhibition of p38alpha by immunosorbent based assay

Mitogen-activated protein kinase 14, sequence (Q16539 whole entry): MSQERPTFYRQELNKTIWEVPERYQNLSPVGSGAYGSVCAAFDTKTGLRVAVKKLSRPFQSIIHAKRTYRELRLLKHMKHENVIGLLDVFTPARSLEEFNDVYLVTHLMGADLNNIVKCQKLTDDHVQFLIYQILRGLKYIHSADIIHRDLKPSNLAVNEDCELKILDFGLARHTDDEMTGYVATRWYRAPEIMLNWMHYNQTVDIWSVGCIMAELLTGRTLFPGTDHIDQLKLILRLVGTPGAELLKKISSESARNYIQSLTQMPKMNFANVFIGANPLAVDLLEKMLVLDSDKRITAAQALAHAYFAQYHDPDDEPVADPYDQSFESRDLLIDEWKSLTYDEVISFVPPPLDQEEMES

Row | SMILES | pIC50
1 | CSc1nc(-c2ccc(F)cc2)c(-c2ccnc(NC(C)=O)c2)n1CCCI | 7.72
2 | COCCn1c(SC)nc(-c2ccc(F)cc2)c1-c1ccnc(NC(=O)CC(F)(F)F)c1 | 6.31
3 | CSc1nc(-c2ccc(F)cc2)c(-c2ccnc(NC(C)=O)c2)n1C(CCO)CCO | 5.21
4 | CSc1nc(-c2ccc(F)cc2)c(-c2ccnc(NC(C)=O)c2)n1CCC(=O)O | 5.65
5 | CSc1nc(-c2ccc(F)cc2)c(-c2ccnc(NC(C)=O)c2)n1CCC(=O)N1CCOCC1 | 5.80
6 | CSc1nc(-c2ccc(F)cc2)c(-c2ccnc(NC(=O)C3CC3)c2)n1C | 6.77
7 | CSc1nc(-c2ccc(F)cc2)c(-c2ccnc(NC(C)=O)c2)n1[C@H]1CC[C@H](O)CC1 | 6.49
8 | CSc1nc(-c2ccc(F)cc2)c(-c2ccnc(NC(C)=O)c2)n1C1CCOCC1 | 6.11
9 | CSc1nc(-c2ccc(F)cc2)c(-c2ccnc(NC(C)=O)c2)n1CC(O)CO (centres undefined) | 5.83
10 | CSc1nc(-c2ccc(F)cc2)c(-c2ccnc(NC(=O)C3CCCC3)c2)n1C | 6.82
11 | CCN(CC)C(=O)Cn1c(SC)nc(-c2ccc(F)cc2)c1-c1ccnc(NC(C)=O)c1 | 7.22
12 | CSc1nc(-c2ccc(F)cc2)c(-c2ccnc(NC(C)=O)c2)n1CCCCC(=O)O | 6.11
13 | CSc1nc(-c2ccc(F)cc2)c(-c2ccnc(NC(C)=O)c2)n1C(CO)CO | 5.20
14 | CCC(=O)Nc1cc(-c2c(-c3ccc(F)cc3)nc(SC)n2CCOC)ccn1 | 6.74
15 | CSc1nc(-c2ccc(F)cc2)c(-c2ccnc(NC(C)=O)c2)n1CC(=O)N1CCOCC1 | 6.55
16 | CCC(CC)n1c(SC)nc(-c2ccc(F)cc2)c1-c1ccnc(NC(C)=O)c1 | 6.24
17 | CSc1nc(-c2ccc(F)cc2)c(-c2ccnc(NC(C)=O)c2)n1CCCCl | 7.77
18 | CSc1nc(-c2ccc(F)cc2)c(-c2ccnc(NC(C)=O)c2)n1CCC(=O)N1CCCCC1 | 5.65
19 | CSc1nc(-c2ccc(F)cc2)c(-c2ccnc(NC(C)=O)c2)n1CCCC(=O)O | 5.79
20 | CSc1nc(-c2ccc(F)cc2)c(-c2ccnc(NC(C)=O)c2)n1CCC(=O)N1CCCC1 | 5.94
21 | CSc1nc(-c2ccc(F)cc2)c(-c2ccnc(NC(C)=O)c2)n1CCCCO | 6.85
22 | CCN(CC)C(=O)CCn1c(SC)nc(-c2ccc(F)cc2)c1-c1ccnc(NC(C)=O)c1 | 5.92
23 | CSc1nc(-c2ccc(F)cc2)c(-c2ccnc(NC(C)=O)c2)n1C1CCCCC1 | 6.10
24 | COC(=O)CCn1c(SC)nc(-c2ccc(F)cc2)c1-c1ccnc(NC(C)=O)c1 | 6.48
25 | CSc1nc(-c2ccc(F)cc2)c(-c2ccnc(NC(C)=O)c2)n1CCCCCl | 6.74
26 | CCOC(=O)CCn1c(SC)nc(-c2ccc(F)cc2)c1-c1ccnc(NC(C)=O)c1 | 6.36

Other lines, results leading:

Row | pIC50 | SMILES
27 | 7.57 | CSc1nc(-c2ccc(F)cc2)c(-c2ccnc(NC(=O)/C(F)=C/c3ccccc3)c2)[nH]1
28 | 6.55 | COc1ccc(/C=C/C(=O)Nc2cc(-c3c(-c4ccc(F)cc4)nc(SC)n3C)ccn2)c(OC)c1
29 | 7.05 | CSc1nc(-c2ccc(F)cc2)c(-c2ccnc(NC(=O)C(C)c3ccc(CC(C)C)cc3)c2)[nH]1 (centres undefined)
30 | 7.85 | CSc1nc(-c2ccc(F)cc2)c(-c2ccnc(NC(=O)c3ccc(C)c(F)c3)c2)[nH]1
31 | 6.89 | CSc1nc(-c2ccc(F)cc2)c(-c2ccnc(NC(=O)CCc3ccc(C(C)(C)C)cc3)c2)[nH]1
32 | 6.77 | CSc1nc(-c2ccc(F)cc2)c(-c2ccnc(NC(=O)/C=C/c3c(Cl)cccc3Cl)c2)n1C
33 | 8.52 | CSc1nc(-c2ccc(F)cc2)c(-c2ccnc(NC(=O)/C=C/c3c(Cl)cccc3Cl)c2)[nH]1
34 | 6.89 | CSc1nc(-c2ccc(F)cc2)c(-c2ccnc(NC(=O)Cc3ccc(F)cc3)c2)n1C
35 | 6.96 | CSc1nc(-c2ccc(F)cc2)c(-c2ccnc(NC(C)=O)c2)n1CCO
36 | 8.00 | COc1ccc(/C=C/C(=O)Nc2cc(-c3[nH]c(SC)nc3-c3ccc(F)cc3)ccn2)cc1
37 | 6.80 | CSc1nc(-c2ccc(F)cc2)c(-c2ccnc(NC(=O)COc3ccc(Cl)cc3Cl)c2)[nH]1
38 | 7.03 | CCn1c(SC)nc(-c2ccc(F)cc2)c1-c1ccnc(NC(=O)Cc2ccc(F)cc2)c1
39 | 6.74 | CSc1nc(-c2ccc(F)cc2)c(-c2ccnc(NC(C)=O)c2)n1CCCF
40 | 6.77 | C=CC(=O)Nc1cc(-c2c(-c3ccc(F)cc3)nc(SC)n2CCOC)ccn1
41 | 7.42 | CCn1c(SC)nc(-c2ccc(F)cc2)c1-c1ccnc(NC(=O)/C=C/c2ccc(OC)cc2OC)c1
42 | 6.96 | COCCn1c(SC)nc(-c2ccc(F)cc2)c1-c1ccnc(NC(C)=O)c1
43 | 7.89 | CSc1nc(-c2ccc(F)cc2)c(-c2ccnc(NC(=O)c3ccco3)c2)[nH]1

Row | pIC50 | SMILES
44 | 7.00 | CSc1nc(-c2ccc(F)cc2)c(-c2ccnc(NC(=O)COc3ccc(Cl)cc3)c2)[nH]1
45 | 6.80 | CSc1nc(-c2ccc(F)cc2)c(-c2ccnc(NC(=O)COc3cccc(Cl)c3Cl)c2)[nH]1
46 | 7.00 | CSc1nc(-c2ccc(F)cc2)c(-c2ccnc(NC(=O)c3ccc(-c4ccccc4)cc3)c2)[nH]1
47 | 7.00 | CCn1c(SC)nc(-c2ccc(F)cc2)c1-c1ccnc(NC(=O)/C=C/c2c(Cl)cccc2Cl)c1
48 | 6.40 | CSc1nc(-c2ccc(F)cc2)c(-c2ccnc(NC(C)=O)c2)n1C1CC1
49 | 7.57 | CSc1nc(-c2ccc(F)cc2)c(-c2ccnc(NC(=O)C3=Cc4ccccc4OC3)c2)[nH]1
50 | 7.74 | COc1ccc(/C=C/C(=O)Nc2cc(-c3c(-c4ccc(F)cc4)nc(SC)n3C)ccn2)cc1
51 | 7.49 | CSc1nc(-c2ccc(F)cc2)c(-c2ccnc(NC(=O)/C=C/c3ccc(C)cc3)c2)[nH]1
52 | 7.28 | CSc1nc(-c2ccc(F)cc2)c(-c2ccnc(NC(=O)c3cc4ccccc4o3)c2)[nH]1
53 | 8.05 | CSc1nc(-c2ccnc(NC(=O)Cc3ccc(F)cc3)c2)c(-c2ccc(F)cc2)[nH]1
54 | 6.82 | CSc1nc(-c2ccc(F)cc2)c(-c2ccnc(NC(C)=O)c2)n1CCCl
55 | 7.57 | CSc1nc(-c2ccc(F)cc2)c(-c2ccnc(NC(C)=O)c2)n1CCCBr
56 | 6.82 | CSc1nc(-c2ccc(F)cc2)c(-c2ccnc(NC(C)=O)c2)n1CCCO
57 | 6.62 | COCCn1c(SC)nc(-c2ccc(F)cc2)c1-c1ccnc(NC(=O)c2cccs2)c1
58 | 7.66 | CSc1nc(-c2ccc(F)cc2)c(-c2ccnc(NC(=O)Cc3ccc(Cl)cc3)c2)n1C
59 | 7.12 | CCn1c(SC)nc(-c2ccc(F)cc2)c1-c1ccnc(NC(=O)/C=C/c2ccc(OC)cc2)c1
